The values below come from patent US12503436B2, “Compounds and compositions for treating conditions associated with STING activity” (NOVARTIS PHARMA AG, priority 2021, dated 2025).

The target of this experiment is STING (Homo sapiens, UniProt Q86WV6, G230A/H232R/R293Q/R71H). Nature of the experiment: STING reporter assay in THP1-Dual KO-IFNAR2 cells (2′3′cGAMP stimulation, luciferase reporter). The format is cell-based. The note with it: 15 μM 2′3′cGAMP stimulation, 24 h, read-out: Pharmaron, THP1_IFNAR2 STING 24 h Luci Normalized: GeoMean EC50. Here is the method:
STING pathway activation by the compounds described herein was measured using THP1-Dual™ cells (KO-IFNAR2).
THP1-Dual™ KO-IFNAR2 Cells (obtained from InvivoGen) were maintained in RPMI, 10% FCS, 5 ml P/S, 2 mM L-glut, 10 mM Hepes, and 1 mM sodium pyruvate. Compounds were spotted in empty 384 well tissue culture plates (Greiner 781182) by Echo for a final concentration of 0.0017-100 μM. Cells were plated into the TC plates at 40 μL per well, 2×10E6 cells/mL. For activation with STING ligand, 2′3′cGAMP (MW 718.38, obtained from Invivogen), was prepared in Optimem media.
The following solutions were prepared for each 1×384 plate: • Solution A: 2 mL Optimem with one of the following stimuli: • 60 μL of 10 mM 2′3′cGAMP→150 μM stock • Solution B: 2 mL Optimem with 60 μL Lipofectamine 2000→Incubate 5 min at RT
2 mL of solution A and 2 ml Solution B was mixed and incubated for 20 min at room temperature (RT). 20 μL of transfection solution (A+B) was added on top of the plated cells, with a final 2′3′cGAMP concentration of 15 μM. The plates were then centrifuged immediately at 340 g for 1 minute, after which they were incubated at 37° C., 5% CO2, >98% humidity for 24 h. Luciferase reporter activity was then measured. EC50 values were calculated by using standard methods known in the art.
Luciferase reporter assay: 10 μL of supernatant from the assay was transferred to white 384-plate with flat bottom and squared wells. One pouch of QUANTI-Luc™ Plus was dissolved in 25 mL of water. 100 μL of QLC Stabilizer per 25 mL of QUANTI-Luc™ Plus solution was added. 50 μL of QUANTI-Luc™ Plus/QLC solution per well was then added. Luminescence was measured on a Platereader (e.g., Spectramax I3X (Molecular Devices GF3637001)).
Luciferase reporter activity was then measured. EC50 values were calculated by using standard methods known in the art.

STING, sequence (Q86WV6 whole entry R71H/G230A/H232R/R293Q): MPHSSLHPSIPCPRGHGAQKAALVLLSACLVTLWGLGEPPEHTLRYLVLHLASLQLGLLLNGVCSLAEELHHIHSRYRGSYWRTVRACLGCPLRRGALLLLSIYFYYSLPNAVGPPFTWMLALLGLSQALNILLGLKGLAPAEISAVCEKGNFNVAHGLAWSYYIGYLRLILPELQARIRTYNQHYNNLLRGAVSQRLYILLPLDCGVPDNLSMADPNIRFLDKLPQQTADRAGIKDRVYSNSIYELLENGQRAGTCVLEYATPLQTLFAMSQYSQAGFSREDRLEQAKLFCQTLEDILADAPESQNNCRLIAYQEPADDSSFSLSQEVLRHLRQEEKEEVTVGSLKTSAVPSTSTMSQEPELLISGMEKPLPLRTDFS

The EC50 is the concentration giving half of the maximal effect. `C[C@]1(C(=O)Nc2c[nH]c3ccc(OCC[C@@H]4C[C@@H]5CN(CC(F)(F)F)C[C@@H]5C4)cc23)C[C@H](O)C1` [Compound 514, (1r,3R)-3-hydroxy-1-methyl-N-(5-(2-((3aR,5r,6aS)-2-(2,2,2-trifluoroethyl)octahydrocyclopenta[c]pyrrol-5-yl)ethoxy)-1H-indol-3-yl)cyclobutane-l-carboxamide]: the EC50 was in the range of 0.2 to 1 µM.

Take `CC(=O)Nc1c[nH]c2ccc(CCOc3ccc(C(F)(F)F)cc3)c(F)c12` [Compound 213, N-(4-fluoro-5-(2-(4-(trifluoromethyl)phenoxy)ethyl)-1H-indol-3-yl)acetamide]: the EC50 lay within 0.2 to 1 µM. In the case of `O=C(Nc1c[nH]c2ccc(O[C@H]3C[C@@H](c4ccc(C(F)(F)F)cc4)C3)cc12)C1CC1(F)Cl` (stereo partly drawn) [Compound 575, 2-chloro-2-fluoro-N-(5-(cis-3-(4-(trifluoromethyl)phenyl)cyclobutoxy)-1H-indol-3-yl)cyclopropane-1-carboxamide], the EC50 was 0.2 to 1 µM.

With `CC1(C(=O)Nc2c[nH]c3ccc(CC(O)Cc4ccc(C(F)(F)F)cn4)cc23)CC1` (stereo not shown) [Compound 540, N-(5-(2-hydroxy-3-(5-(trifluoromethyl)pyridin-2-yl)propyl)-1H-indol-3-yl)-1-methylcyclopropane-1-carboxamide], the EC50 was in the range of 1 to 5 µM.

As for `CC(=O)Nc1c[nH]c2ccc(CCOc3ccc4c(c3)CCCC4)cc12` [Compound 490, N-(5-[2-(5,6,7,8-tetrahydronaphthalen-2-yloxy)ethyl]-1H-indol-3-yl}acetamide], the EC50 is 0.04 to 0.2 µM. “2,2-dimethyl-N-(5-(2-((3aR,5r,6aS)-2-(2,2,2-trifluoroethyl)octahydrocyclopenta[c]pyrrol-5-yl)ethoxy)-1H-indol-3-yl)cyclopropane-1-carboxamide [Compound 368]”: the 50% effective concentration (EC50) fell in the range of 0.2 to 1 µM.

Consider `O=C(Nc1c[nH]c2ccc(CCOc3ccc(C(F)(F)F)nc3)cc12)C1CC1` [Compound 167, N-(5-(2-((6-(trifluoromethyl)pyridin-3-yl)oxy)ethyl)-1H-indol-3-yl)cyclopropanecarboxamide], for which the EC50 was in the range of 0.2 to 1 µM. With `CC(=O)Nc1c[nH]c2ccc(OCCc3ccc(C(F)(F)F)cc3)c(Br)c12` [Compound 350, N-(4-bromo-5-(4-(trifluoromethyl)phenethoxy)-1H-indol-3-yl)acetamide], the EC50 lay within 1 to 5 µM.

For `CC1(C(=O)Nc2c[nH]c3ccc(O[C@H]4C[C@@H](c5ccc(C(F)(F)F)nc5)C4)cc23)CC1` [Compound 579, 1-methyl-N-(5-(cis-3-(6-(trifluoromethyl)pyridin-3-yl)cyclobutoxy)-1H-indol-3-yl)cyclopropane-1-carboxamide], the EC50 lay in the range of 0.2 to 1 µM. For the compound `O=C(Nc1c[nH]c2ccc(O[C@H]3C[C@@H](c4ccc(C(F)(F)F)cc4)C3)cc12)C1CC(F)C1` (stereo partly drawn) [Compound 576, 3-fluoro-N-(5-(cis-3-(4-(trifluoromethyl)phenyl)cyclobutoxy)-1H-indol-3-yl)cyclobutane-1-carboxamide], the EC50 is 0.04 to 0.2 µM.

Turning to `CC(=O)Nc1c[nH]c2ccc(CCOc3ccc(C(F)(F)F)cc3Br)cc12` [Compound 544, N-(5-(2-(2-bromo-4-(trifluoromethyl)phenoxy)ethyl)-1H-indol-3-yl)acetamide], the EC50 lay in the range of 0.2 to 1 µM. Take `CC[C@H](O)C(=O)Nc1c[nH]c2ccc(OCC[C@@H]3C[C@@H]4CN(CC(F)(F)F)C[C@@H]4C3)cc12` [Compound 521, (S)-2-hydroxy-N-(5-(2-((3aR,5r,6aS)-2-(2,2,2-trifluoroethyl)octahydrocyclopenta[c]pyrrol-5-yl)ethoxy)-1H-indol-3-yl)butanamide]: the EC50 fell in the range of 0.2 to 1 µM.

As for `CC(C)(C)OC(=O)N1CCC(CCOc2ccc3[nH]cc(NC(=O)C4CCC4)c3c2)CC1` [Compound 140, tert-butyl 4-(2-((3-(cyclobutanecarboxamido)-1H-indol-5-yl)oxy)ethyl)piperidine-1-carboxylate], the EC50 is 0.2 to 1 µM. Take `N#CC1CCC1C(=O)Nc1c[nH]c2ccc(O[C@H]3C[C@@H](c4ccc(C(F)(F)F)cc4)C3)cc12` (stereo partly drawn) [Compound 355, 2-cyano-N-(5-(cis-3-(4-(trifluoromethyl)phenyl)cyclobutoxy)-1H-indol-3-yl)cyclobutane-1-carboxamide]: the EC50 lay in the range of 0.2 to 1 µM. Consider `CC1(C(=O)Nc2c[nH]c3ccc(OCc4ccc(C(F)(F)F)cc4)cc23)CCCO1` (stereo not shown) [Compound 325, 2-methyl-N-(5-((4-(trifluoromethyl)benzyl)oxy)-1H-indol-3-yl)tetrahydrofuran-2-carboxamide], for which the EC50 was in the range of 0.2 to 1 µM. Regarding `CC(C)(C)C(=O)Nc1c[nH]c2ccc(OCC[C@@H]3C[C@@H]4CN(CC(F)(F)F)C[C@@H]4C3)cc12` [Compound 367, N-(5-(2-((3aR,5r,6aS)-2-(2,2,2-trifluoroethyl)octahydrocyclopenta[c]pyrrol-5-yl)ethoxy)-1H-indol-3-yl)pivalamide], the concentration for a half-maximal effect (EC50) fell in the range of 0.2 to 1 µM. Turning to `O=C(Nc1c[nH]c2ccc(O[C@H]3C[C@H](c4ccc(C(F)(F)F)cc4)C3)cc12)C1CC1` [Compound 147, N-(5-(trans-3-(4-(trifluoromethyl)phenyl)cyclobutoxy)-1H-indol-3-yl)cyclopropanecarboxamide], the EC50 lay within 0.04 to 0.2 µM.

Take `CC(=O)Nc1c[nH]c2ccc(CCOc3cnc4c(C(F)(F)F)cccc4c3)cc12` [Compound 555, N-(5-(2-((8-(trifluoromethyl)quinolin-3-yl)oxy)ethyl)-1H-indol-3-yl)acetamide]: the EC50 was in the range of 1 to 5 µM.

Regarding `CO[C@H]1C[C@@H](C(=O)Nc2c[nH]c3ccc(OCCc4ccc(C(F)(F)F)cc4)cc23)C1` [Compound 222, cis-3-methoxy-N-(5-(4-(trifluoromethyl)phenethoxy)-1H-indol-3-yl)cyclobutane-1-carboxamide], the EC50 lay within 0.04 to 0.2 µM. Next, `CC(=O)Nc1c[nH]c2ccc(OCCC3CCCN(CC(F)(F)F)C3)cc12` (single isomer, unassigned) [Compound 280]: 1 to 5 µM; “3-chloro-N-(5-(2-((3aR,5r,6aS)-2-(2,2,2-trifluoroethyl)octahydrocyclopenta[c]pyrrol-5-yl)ethoxy)-1H-indol-3-yl)cyclobutane-1-carboxamide [Compound 342]”: 0.2 to 1 µM. On to `C[C@@H]1OC[C@H]1C(=O)Nc1c[nH]c2ccc(O[C@H]3C[C@H](c4ccc(C(F)(F)F)cc4)C3)cc12` [Compound 423, (2S,3R)-2-methyl-N-(5-(trans-3-(4-(trifluoromethyl)phenyl)cyclobutoxy)-1H-indol-3-yl)oxetane-3-carboxamide], for which the concentration giving a half-maximal response (EC50) was in the range of 0.2 to 1 µM.

As for `CC(=O)Nc1c[nH]c2ccc(CCOc3cccnc3C(F)(F)F)cc12` [Compound 541, N-(5-(2-((2-(trifluoromethyl)pyridin-3-yl)oxy)ethyl)-1H-indol-3-yl)acetamide], the EC50 was 5 to 100 µM. Take `COC(CCc1ccc2[nH]cc(NC(=O)C3CCC3)c2c1)c1ccc(C(F)(F)F)cc1` (stereo not shown) [Compound 133, N-(5-(3-methoxy-3-(4-(trifluoromethyl)phenyl)propyl)-1H-indol-3-yl)cyclobutanecarboxamide]: the EC50 fell in the range of 0.2 to 1 µM. On to `CC(=O)Nc1c[nH]c2ccc(COCC34CC(CN3CC(F)(F)F)C4)cc12` [Compound 492, N-(5-(((2-(2,2,2-trifluoroethyl)-2-azabicyclo[2.1.1]hexan-1-yl)methoxy)methyl)-1H-indol-3-yl)acetamide], for which the EC50 lay in the range of 5 to 100 µM.
